Assay results as given in patent US6864219B2, “Substituted aryl ketones” (Bayer Aktiengesellschaft, priority 2000, dated 2005).
Read-outs that look alike come from different tables or passages of the source.

How the values were obtained:
weeds [1] = test: Pre-emergence test (Example A), activity against weeds; assay type: in vivo; settings: soil sprayed 24 hours after sowing; damage rated after three weeks
Procedure: (§1) To produce a suitable preparation of active compound, 1 part by weight of active compound is mixed with the stated amount of solvent, the stated amount of emulsifier is added and the concentrate is diluted with water to the desired concentration.
Seeds of the test plants are sown in normal soil. After 24 hours, the soil is sprayed with the preparation of active compound such that the particular amount of active compound desired is applied per unit area. The concentration of active compound in the spray liquor is chosen such that the particular amount of active compound desired is applied in 1000 liters of water per hectare.
After three weeks, the degree of damage to the plants is rated in % damage in comparison to the development of the untreated control. The figures denote: • 0%=no effect (like untreated control) • 100%=total destruction

weeds [2] = test: Post-emergence test (Example B), activity against weeds; assay type: in vivo; settings: test plants 5-15 cm sprayed; damage rated after three weeks
Procedure: as §1
Test plants with a height of 5-15 cm are sprayed with the preparation of active compound such that the particular amounts of active compound desired are applied per unit area. The concentration of the spray liquor is chosen so that the particular amounts of active compound desired are applied in 1000 l of water/ha.
After three weeks, the degree of damage to the plants is rated in % damage in comparison to the development of the untreated control.
The figures denote: • 0%=no effect (like untreated control) • 100%=total destruction

[3] = log P determination by HPLC on reversed-phase column (C 18), EEC Directive 79/831 V.A8; assay type: physicochemical; settings: for logP (Physical data, Table 1): labelled a): acidic range, 0.1% aqueous phosphoric acid/acetonitrile gradient, 43° C.
Procedure: The log P values given in Table 1 were determined in accordance with EEC Directive 79/831 V.A8 by HPLC (High Performance Liquid Chromatography) on a reversed-phase column (C 18). Temperature: 43° C.
(a) Mobile phases for the determination in the acidic range: 0.1% aqueous phosphoric acid, acetonitrile; linear gradient of 10% acetonitrile to 90% acetonitrile—the corresponding data in Table 1 are labelled ^a).
(b) Mobile phases for the determination in the neutral range: 0.01 molar aqueous phosphate buffer solution, acetonitrile, linear gradient from 10% acetonitrile to 90% acetonitrile—the corresponding data in Table 1 are labelled ^b).

[4] = reversed-phase HPLC column (C 18), mobile-phase label not given, read-out: Log P (preparation examples)
[5] = reversed-phase HPLC column (C 18), labelled a): acidic range; read-out: logP)

Row | Structure (SMILES) | activity against weeds, pre-emergence (weeds [1]) | activity against weeds, post-emergence (weeds [2]) | chromatographic logP [3, 4] | logP (Physical data, Table 1) [3] | chromatographic logP [3, 5] | chromatographic logP ([3]; reversed-phase HPLC column (C 18), labelled a): acidic range, starting materials of formula (II)/(IIA), read-out: logP (Physical data, Table 2))
1 | CCn1ncc(C(=O)c2ccc(S(C)(=O)=O)c(OCCn3nc(C)n(C)c3=O)c2C)c1O [Example 1, 4-{3-[2-(3′,4′-dimethyl-1′,2′,4′-1H-triazolin-5′-on-1′-yl)-ethyloxy]-2-methyl-4-methylsulphonyl-benzoyl}-1-ethyl-5-hydroxy-1H-pyrazole] | strong activity | strong activity | 1.23 |  |  | 
2 | CCOc1nn(COc2c(Cl)ccc(C(=O)C3C(=O)CCCC3=O)c2Cl)c(=O)n1C [Example 2, 2-[3-(3′-ethoxy-4′-methyl-1′,2′,4′-1H-triazolin-5′-on-1′-yl)-methoxy-2,4-dichloro-benzoyl]-1,3-cyclohexanedione] | strong activity | strong activity | 2.52 |  |  | 
3 | O=C1CCCC(O)=C1C(=O)c1ccc(Cl)c(OCn2ccccc2=O)c1Cl [Example 3] | strong activity | strong activity |  | logP = 2.04^a) |  | 
4 | Cc1nn(CCOc2c(Cl)ccc(C(=O)C3=C(O)CCCC3=O)c2Cl)c(=O)n1C [Example 4] | strong activity | strong activity |  | logP = 1.92^a) |  | 
5 | CCn1ncc(C(=O)c2ccc(Cl)c(OCCn3nc(C)n(C)c3=O)c2Cl)c1O [Example 5] | strong activity | strong activity |  | logP = 1.52^a) |  | 
6 | Cc1c(C(=O)C2=C(O)CCCC2=O)ccc(Cl)c1OCCn1nc(C)n(C)c1=O [Example 6] | strong activity | strong activity |  | logP = 1.93^a) |  | 
7 | CCn1ncc(C(=O)c2ccc(Cl)c(OCCn3nc(C)n(C)c3=O)c2C)c1O [Example 7] | strong activity | strong activity |  | logP = 1.68^a) |  | 
8 | CSc1ccc(C(=O)C2=C(O)CCCC2=O)c(Cl)c1OCCn1nc(C)n(C)c1=O [Example 8] | strong activity | strong activity |  | logP = 1.94^a) |  | 
9 | CCn1ncc(C(=O)c2ccc(SC)c(OCCn3nc(C)n(C)c3=O)c2Cl)c1O [Example 9] | strong activity | strong activity |  | logP = 1.58^a) |  | 
10 | CSc1ccc(C(=O)C2=C(O)CCCC2=O)c(C)c1OCCn1nc(C)n(C)c1=O [Example 10] | strong activity | strong activity |  | logP = 1.91^a) |  | 
11 | Cc1nn(CCOc2c(S(C)(=O)=O)ccc(C(=O)C3=C(O)CCCC3=O)c2Cl)c(=O)n1C [Example 11] | strong activity | strong activity |  | logP = 1.65^a) |  | 
12 | CSc1nn(COc2c(Cl)ccc(C(=O)C3=C(O)CCCC3=O)c2Cl)c(=O)n1C [Example 13] |  | strong activity |  | logP = 2.44^a) |  | 
13 | CCOC(=O)c1ccc(Cl)c(OC[C@@H]2CCC(=O)N2)c1Cl [II-61, ethyl (S)-2,4-dichloro-3-[(2-oxo-pyrrolidin-5-yl)-methoxy]-benzoate] |  |  |  |  | 2.14 | 2.15
14 | CCOC(=O)c1ccc(Cl)c(OCCBr)c1Cl [ethyl 2,4-dichloro-3-(2-bromo-ethoxy)-benzoate] |  |  |  |  | 3.98 | 
15 | COC(=O)c1ccc(Cl)c(OCCCl)c1C [methyl 4-chloro-3-(2-chloro-ethoxy)-2-methyl-benzoate] |  |  | 3.52 |  |  | 
16 | COC(=O)c1ccc(Cl)c(O)c1C [methyl 4-chloro-3-hydroxy-2-methyl-benzoate] |  |  | 2.14 |  |  | 
